Measured values as given in patent US12286453B2, “Methods of sequencing using nucleotides with 3′ acetal blocking group” (ILLUMINA CAMBRIDGE LIMITED, priority 2020, dated 2025).

Assay: Solution cleavage efficiency of palladium reagent formulations (HPLC kinetics)
Format: physicochemical
Conditions: 1 mM Pd species, 0.1 mM substrate, RT; 3 or 3.5 equivalents of THP vs 10 equivalents for [(Allyl)PdCl]2
Experimental: The cleavage efficiency was determined by measuring the relative rate of cleavage of a 3′-AOM-nucleotide substrate. Briefly, to a 0.1 mM solution of 3′-AOM-nucleotide substrate in 100 mM buffer was added a stock solution of a palladium reagent to a final concentration of 1 mM in Pd species. The solution was incubated at RT and the reaction kinetic was monitored by taking aliquots from the reaction at set time points, quenching them with a 1:1 solution of EDTA/H2O2 (0.1:0.1 M) and analyzing them by HPLC for the formation of 3′-OH nucleotide and the disappearance of the 3′-AOM nucleotide substrate.

In the case of `[Cl-].[Cl-].[Cl][Pd][Cl].[Na+].[Na+]` [Na2PdCl4], the “cleavage efficiency (relative rate of cleavage)” value is reported as “comparable to that of [(Allyl)PdCl]2”.
